How the values were obtained:
[1] = Stability of hemifumarate salt solution relative to free base solution at elevated temperature; format: physicochemical; details: solution/suspension in ethanol; 40° C., 50° C. and 60° C. for one week; compared with free base
Protocol: 30 g of compound I was prepared using the method of Example 3 of WO2004/103306. The hemifumarate salt of the invention was then prepared by reacting a suspension of 30.0 g of compound I and […] fumaric acid (5% conc.) in 200 g ethanol absolute (>99.9%) at room temperature (25° C.).
The stability of the hemifumarate salt solution relative to the free base solution was then tested by subjecting both solutions to conditions of elevated temperature (40° C., 50° C. and 60° C.) for a period of one week.

[2] = pressure of 10 tons for 5 minutes; Raman microscope
Protocol: Crystalline form A was also tested for pressure stability by exposing a few milligrams of this form to a pressure of 10 tons for 5 minutes.

[3] = Dynamic Vapour Sorption (hygroscopicity); format: physicochemical; details: 50-0-95-50% r.h.
From the text: Dynamic Vapour Sorption measurements were taken using a DVS-1 water vapour sorption analyzer (Surface Measurement Systems Ltd.) or a Projekt Messtechnik SPS11-100n. The sample was allowed to equilibrate at 50% r.h. before starting a pre-defined humidity program (50-0-95-50% r.h., scanning with 5% Δr.h. hour-1 and with several isohumid equilibration periods).

Row | Compound | stability of the hemifumarate salt solution relative to the free base solution [1] | pressure stability (change in crystal form) [2] | hygroscopicity [3]
1 | CCc1cc(/C(C)=N/OCc2ccc(C3CCCCC3)c(C(F)(F)F)c2)ccc1CN1CC(C(=O)O)C1.O=C(O)/C=C/C(=O)O [hemifumarate salt, 1-(4-{1-[(E)-4-Cyclohexyl-3-trifluoromethyl-benzyloxyimino]-ethyl}-2-ethyl-benzyl)-azetidine-3-carboxylic acid, (E)-but-2-enedioic acid] | superior stability | – | –
2 | CCc1cc(/C(C)=N/OCc2ccc(C3CCCCC3)c(C(F)(F)F)c2)ccc1CN1CC(C(=O)O)C1.CCc1cc(/C(C)=N/OCc2ccc(C3CCCCC3)c(C(F)(F)F)c2)ccc1CN1CC(C(=O)O)C1.O=C(O)/C=C/C(=O)O [Crystalline Form A] | – | no change in form was observed | low hygroscopicity

Reference: patent US20240239743A1, “1-(4-{1-[(E)-4-CYCLOHEXYL-3-TRIFLUOROMETHYLBENZYLOXYIMINO]-ETHYL}-2-ETHYL-BENZYL)-AZETIDINE-3-CARBOXYLIC ACID, (E)-BUT-2-ENEDIOIC ACID” (Novartis AG, priority 2008, published 2024)
